Patent US10253071B2, “Selectin inhibitors, composition, and uses related thereto” (Beth Israel Deaconess Medical Center, Inc., priority 2014, dated 2019)
Square brackets hold non-standard residues; d marks the D form. Peptide text beside a SMILES is read from it. * marks the point of attachment. X1 = CC(=O)N[C@@H]1[C@@H](O[C@@H]2O[C@H](CO)[C@H](O)[C@H](O)[C@H]2O)[C@@H](O)[C@@H](CO[C@@H]2O[C@H](CO)[C@@H](O[C@@H]3O[C@H](CO)[C@H](O)[C@H](O[C@]4(C(=O)O)C[C@H](O)[C@@H](NC(C)=O)[C@H]([C@H](O)[C@H](O)CO)O4)[C@H]3O)[C@H](O[C@@H]3O[C@@H](C)[C@@H](O)[C@@H](O)[C@@H]3O)[C@H]2NC(C)=O)O[C@@H]1*; Phe(4-CH2SO3H) = N[C@@H](Cc1ccc(CS(=O)(=O)O)cc1)C(=O)O; Mca = COc1ccc2c(CC(=O)*)cc(=O)oc2c1

How the values were obtained:
[1] = target: T1, mouse P-selectin (Mus musculus, UniProt Q01102); assay: Biacore binding assay, mouse P-selectin
T1 sequence (Q01102 42-768): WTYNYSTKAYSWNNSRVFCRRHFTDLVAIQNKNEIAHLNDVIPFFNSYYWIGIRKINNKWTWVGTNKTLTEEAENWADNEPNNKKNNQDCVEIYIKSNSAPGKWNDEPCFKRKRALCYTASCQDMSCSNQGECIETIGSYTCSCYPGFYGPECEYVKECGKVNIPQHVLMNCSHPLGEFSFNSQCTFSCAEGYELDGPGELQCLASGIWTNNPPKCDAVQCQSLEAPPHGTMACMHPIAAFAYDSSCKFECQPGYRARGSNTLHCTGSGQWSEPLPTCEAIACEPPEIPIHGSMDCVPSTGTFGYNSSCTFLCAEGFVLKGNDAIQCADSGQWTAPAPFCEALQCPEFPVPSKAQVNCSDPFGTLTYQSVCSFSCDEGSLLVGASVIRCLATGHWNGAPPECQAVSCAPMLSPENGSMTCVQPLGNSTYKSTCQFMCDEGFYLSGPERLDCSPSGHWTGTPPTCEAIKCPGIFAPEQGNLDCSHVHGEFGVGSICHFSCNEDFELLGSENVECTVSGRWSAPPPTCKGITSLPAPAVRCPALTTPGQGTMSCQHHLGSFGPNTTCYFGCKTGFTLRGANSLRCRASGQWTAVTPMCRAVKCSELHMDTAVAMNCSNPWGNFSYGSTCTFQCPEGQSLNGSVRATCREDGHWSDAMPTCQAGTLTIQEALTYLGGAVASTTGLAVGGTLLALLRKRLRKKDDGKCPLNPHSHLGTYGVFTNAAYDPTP
Method: (§1) Bound peptides were detected using Alexa-488 labeled anti-human IgG antibody (5 μg/mL). Three lectins RCA-1, AAL, and PNA were used to confirm the sequence of enzymatic steps. Monoclonal antibodies CHO131, PSG2 antibody and PL-1 were used to confirm the presence of SLex, tyrosine sulfates, and the peptide sequence, respectively. Biacore binding analysis to human P-selectin with observed rate constants for (D) GSnP-6, kon 3.1×10^5 M^−1s^−1, koff 6.9×10^3 M^−1s^−; GSn2P-6, kon6.4×10^5 M^−1s^−1, koff 6.8×10^3 M^−1s. Biacore binding analysis to mouse P-selectin with observed rate constants for (E) GsnP-6, kon 4.9×10^4 M^−1s^−1, koff 8.0×10^3 M^−1s^−; GSn2P-6 kon 5.3×10^4 M^−1s^−1, koff 9.0×10^3 M^−1s. (F) Temperature- and pH-dependent stability studies of GSnP-6.
Dissociation constants (Kd) were determined using a Biacore binding assay after initial capture of biotinylated GS(n)P-6 onto streptavidin-coated sensor chips followed by flow through of P-, L- or E-sel-Ig (2.5 to 60 μg/mL). […] The Kd of GSnP-6 to murine P-selectin was ˜9-fold lower than to human P-selectin.

[2] = Chemical stability at low pH and at high temperature (RP-HPLC); assay type: physicochemical; conditions: sodium acetate/acetic acid buffer pH 5, 37° C.; and 2 mM phosphate buffer pH 7.5, 60° C.
Method: as §1
The chemical stability of GSnP-6 was evaluated under low pH conditions by incubating the compound in sodium acetate/acetic acid buffer at pH 5, 37° C., as well as under high temperature conditions by incubation in 2 mM phosphate buffer at pH 7.5, 60° C. (FIG. 3E).

COc1ccc2c(CC(=O)NCCCC[C@H](N)C(=O)N[C@@H](CCC(=O)O)C(=O)N[C@@H](Cc3ccc(CS(=O)(=O)O)cc3)C(=O)N[C@@H](CCC(=O)O)C(=O)N[C@@H](Cc3ccc(CS(=O)(=O)O)cc3)C(=O)N[C@@H](CC(C)C)C(=O)N[C@@H](CC(=O)O)C(=O)N[C@@H](Cc3ccc(CS(=O)(=O)O)cc3)C(=O)N[C@@H](CC(=O)O)C(=O)N[C@@H](Cc3ccccc3)C(=O)N[C@@H](CC(C)C)C(=O)N3CCC[C@H]3C(=O)N[C@@H](CCC(=O)O)C(=O)N[C@H](C(=O)N[C@@H](CCC(=O)O)C(=O)N3CCC[C@H]3C(=O)N[C@@H](CC(C)C)C(=O)O)[C@@H](C)O[C@H]3O[C@H](CO[C@@H]4O[C@H](CO)[C@@H](O[C@@H]5O[C@H](CO)[C@H](O)[C@H](O[C@]6(C(=O)O)C[C@H](O)[C@@H](NC(C)=O)[C@H]([C@H](O)[C@H](O)CO)O6)[C@H]5O)[C@H](O[C@@H]5O[C@@H](C)[C@@H](O)[C@@H](O)[C@@H]5O)[C@H]4NC(C)=O)[C@H](O)[C@H](O[C@@H]4O[C@H](CO)[C@H](O)[C@H](O)[C@H]4O)[C@H]3NC(C)=O)cc(=O)oc2c1 [GSnP-6] (H-K(Mca)E[Phe(4-CH2SO3H)]E[Phe(4-CH2SO3H)]LD[Phe(4-CH2SO3H)]DFLPET(X1)EPL-OH)
Kd to murine P-selectin relative to human P-selectin ([1]; printed as fold lower than to human P-selectin): ~9 fold | koff ([1]; read-out: koff, mouse P-selectin): 0.008 s⁻¹ | kon ([1]; read-out: kon, mouse P-selectin): 49000 M⁻¹ s⁻¹ | chemical stability (degraded products by RP-HPLC) [2]: degraded products were not detected
